Source: patent US11118211B2, “Methods for the design of mechanism-based sirtuin activating compounds” (CHAKRABARTI ADVANCED TECHNOLOGY LLC, priority 2015, dated 2021)
In brackets after ≈: the same amount, converted by molar mass. Like-named read-outs stand apart in the source and are kept apart here. Values belong to the compound of their own block, whether it stands above or below them.

Key:
[1] = Thermodynamic solubility measurement by HPLC in HDAC buffer / DMSO; format: physicochemical; conditions: for solubility at 48 h: 24.5 °C, thermodynamic from solid, ambient (24-25° C.); for thermodynamic solubility (in words): solubility protocol of b230
Method: DHP-1 in up to 20% DMSO/HDAC was insoluble. In brief, HPLC (Agilent 1100 series) was used to perform the test. Calibration curves were established using concentration range covering the estimated solubility's. The samples were then analyzed by a well-calibrated HPLC method. The linearity was measured by R-values at least >0.99. The estimated detection limit was around 0.002 mg/mL (2 μg/mL) based on acceptable N/S ratio. Over saturated samples were prepared by dosing excess compounds into the solvent mixtures of interest. The samples were equilibrated at ambient (24-25° C.) for 48 hours and then analyzed by the same HPLC method.

Human Sirt3 protein [2] = biological target: T1, Human Sirt3 protein (Homo sapiens, UniProt Q9NTG7); assay: Binding analysis by microscale thermophoresis (MST); conditions: 5% DMSO, 25° C.
T1 construct: hexa-histidine (N); host or cells: E. coli Arctic Express (DE3)
T1 sequence (Q9NTG7 102-399): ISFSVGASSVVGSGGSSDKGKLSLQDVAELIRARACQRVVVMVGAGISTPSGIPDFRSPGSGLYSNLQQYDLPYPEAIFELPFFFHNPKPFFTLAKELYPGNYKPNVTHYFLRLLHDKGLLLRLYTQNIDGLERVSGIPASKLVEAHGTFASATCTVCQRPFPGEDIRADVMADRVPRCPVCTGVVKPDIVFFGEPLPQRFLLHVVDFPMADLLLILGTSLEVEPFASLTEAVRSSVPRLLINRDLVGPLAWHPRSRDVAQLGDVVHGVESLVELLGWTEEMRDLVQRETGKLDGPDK
Method: Human Sirt3 protein was labeled with Alexa647 fluorophore by NHS ester chemistry in 20 mM HEPES, 200 mM NaCl, 0.5 mM TCEP at pH 7.5. A 2:1 molar excess of reactive dye was used over protein, in order to preferentially label one lysine within the protein. Free dye was removed using a size exclusion column and the labeled protein (Sirt3 NT647) was buffer exchanged into 50 mM Tris-HCl pH 8.0, 137 mM NaCl, 2.7 mM KCl, 1 mM MgCl2, 5% DMSO, 0.05% Pluronic F-127. A final concentration of 2 nM Sirt3 NT647 was titrated with varying concentrations of the modulator and thermophoresis was measured (excitation wavelength 650 nm, emission wavelength 670 nm, LED-power 15%, laser-power 80%) using a Monolith NT. 115 Pico (NanoTemper Technologies) at 25° C. in the absence and presence of various concentrations of NAD+, acetylated and de-acetylated peptide (K122-MnSOD peptide). Dissociation constants were determined with GraFit7 (Erithacus Software) by nonlinear fitting using a 1:1 binding model. Each experiment was repeated at least twice.

Human Sirt3 protein [3] = biological target: T1, Human Sirt3 protein; assay: Label-free HPLC endpoint assay of Sirt3 deacetylation activity (DHP-1, DHP-2; FdL/p53 peptide); format: biochemical; conditions: for % product formation / % Sirt3 Activity: 50 uM DHP-1 in 5% DMSO; for % Sirt3 Activity: control = 100.0
Method: Reactions for DHP-1 used a similar protocol, but were carried out at a single concentration of modulator and varying concentrations of NAD+ and fluorolabeled peptide at 37° C. in a 50 μl reaction volume containing 50 mM Tris/Cl (pH=8), 137 mM NaCl, and 5% DMSO. [DHP] was 50 uM.

recombinant human SIRT3 = biological target: T2, recombinant human SIRT3 (Homo sapiens, UniProt Q9NTG7); assay: High-throughput fluorimetric initial rate / endpoint assay of SIRT3 deacetylation with fluorolabeled p53 peptide; format: biochemical
T2 construct: purchased Enzo Life Sciences AK 557
T2 sequence (Q9NTG7 1-399): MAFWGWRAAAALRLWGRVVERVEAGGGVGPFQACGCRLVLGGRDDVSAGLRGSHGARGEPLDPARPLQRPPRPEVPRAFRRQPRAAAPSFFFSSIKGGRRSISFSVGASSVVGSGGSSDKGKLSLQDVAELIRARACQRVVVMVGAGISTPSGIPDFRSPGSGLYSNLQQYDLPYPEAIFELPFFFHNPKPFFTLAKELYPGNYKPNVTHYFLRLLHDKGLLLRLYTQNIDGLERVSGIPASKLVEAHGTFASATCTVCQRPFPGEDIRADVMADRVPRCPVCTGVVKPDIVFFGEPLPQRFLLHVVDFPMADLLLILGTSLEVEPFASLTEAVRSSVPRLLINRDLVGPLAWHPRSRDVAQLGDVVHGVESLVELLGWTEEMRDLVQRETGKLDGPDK
Method: The specified concentration of the test compound was chosen to be 50 uM. Initial deacylation rates at DHP-1's were measured at varying [NAD+] and [NAM] according to the following methods.
The steady state parameters (Km and kcat) and catalytic efficiency (kcat/Km) of deacetylase activity of recombinant human SIRT3 were determined using a fluorimetric assay. The deacetylation activities were measured by using the SIRT3 Fluorimetic Drug Discovery Kit (AK 557, Enzo Life Sciences). This assay system allows detection of a fluorescent signal upon deacetylation of an acetylated substrate peptide, comprising amino acids 317-320 of human p53 (Gln-Pro-Lys-LysAc) for SIRT3, when treated with developer. The intensity of fluorescence was measured on a fluorometric microplate reader (Fluoroskan AscentH FL, Thermo Lab Systems) with excitation set at 355 nm and emission detection set at 460 nm. The initial rate of the NAD^+-dependent deacetylation activity of SIRT3 enzyme was measured at different concentrations of NAD^+. The reactions were carried out at 37° C. in a 50 μl reaction volume containing 50 mM Tris/Cl (pH=8), 137 mM NaCl, and 250 uM fluorolabeled peptide substrate. Reactions carried out in the presence of DHP-1 included 5% DMSO. The raw data were fitted to the Michaelis-Menten equation and defined inhibition models by using GraphPad Prism (GraphPad Software, Inc, CA) to obtain the kinetic constants. […] In assays of allosteric modulators, artifacts reported in the presence of the fluorescent label were later shown to occur due to the hydrophobic fluorophore participating in the modulator's allosteric activation mechanism.
This assay was used to measure the potency of modulation of SIRT3 by DHP-1 in a high-throughput endpoint format. All reagents are diluted on ice in the following reaction buffer: 50 mM Tris/Cl, pH 8.0, 137 mM NaCl, 2.7 mM KCl, 1 mM MgCl2, and 1 mg/mL BSA. Thus for each reaction well, 5U of SIRT3 enzyme is added to 500 μM NAD^+, 250 μM fluorolabeled peptide substrate, and DHP-1 at a given concentration (0-100 uM) in a total reaction volume of 50 μL. After an hour incubation at 37° C., the reaction is stopped upon addition of 1× Developer for a final reaction volume of 100 μL. The reaction is incubated at 37° C. for an additional 15 min and then read on the plate reader. Positive controls contained only enzyme, substrate, NAD^+, and DMSO while background controls contained substrate, NAD^+, and DMSO only.

Sir2Af2 = biological target: T3, Sir2Af2 (Archaeoglobus fulgidus, UniProt O30124); conditions: cited from earlier work
T3 sequence (O30124 1-253): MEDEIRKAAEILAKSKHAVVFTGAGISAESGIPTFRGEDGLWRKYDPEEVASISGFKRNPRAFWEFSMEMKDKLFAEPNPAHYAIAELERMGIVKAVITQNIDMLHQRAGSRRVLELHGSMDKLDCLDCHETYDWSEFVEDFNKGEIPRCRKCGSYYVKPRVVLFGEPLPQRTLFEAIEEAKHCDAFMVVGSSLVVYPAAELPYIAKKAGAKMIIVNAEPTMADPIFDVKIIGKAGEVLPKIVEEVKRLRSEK

[4] = 2% DMSO in HDAC buffer, aqueous buffer, 2% DMSO/HDAC
[5] = 5% DMSO in HDAC buffer, aqueous with cosolvent or surfactant or cyclodextrin, 5% DMSO/HDAC
[6] = 100 uM NAD + 100 uM FdL Peptide
[7] = 200 uM NAD + 100 uM FdL Peptide
[8] = 500 uM NAD + 250 uM FdL Peptide

- thermodynamic solubility (in words) [1]: thermodynamically insoluble
- Solubility ([1]; up to 20% DMSO/HDAC): insoluble
- SIRT3 activation in label-free assay (Human Sirt3 protein [3]; 50 uM DHP-1, conditions of Table 2, threshold vapp/v=1.10): does not activate SIRT3
- % product formation (Human Sirt3 protein [3]; [6]): 5.776%
- % Sirt3 Activity (Human Sirt3 protein [3]; [6]): 96.7%
- % product formation (Human Sirt3 protein [3]; [7]): 9.463%
- % Sirt3 Activity (Human Sirt3 protein [3]; [7]): 92.3%
- % product formation (Human Sirt3 protein [3]; [8]): 2.111%
- % Sirt3 Activity (Human Sirt3 protein [3]; [8]): 99.5%
- Alpha (apparent, best-fit value) (recombinant human SIRT3; 50 uM DHP-1, global fit of mixed inhibition model, varying NAD+ and NAM): 1.933
- Vmax (apparent, best-fit value) (recombinant human SIRT3; 50 uM DHP-1, global fit of mixed inhibition model, varying NAD+ and NAM, 250 uM fluorolabeled peptide): 0.2118
- net effect on catalytic turnover (vapp versus v) (recombinant human SIRT3; fluorimetric assays): vapp>v
Compound: CCOC(=O)C1=CN(Cc2ccccc2)C=C(C(=O)OCC)C1c1ccccc1 [DHP-1, N-Benzyl-3,5-dicarbethoxy-4-phenyl-1,4-dihydropyridine]

- solubility at 48 h [1, 4]: 1740 µg/mL (≈ 5.2 mM)
- solubility at 48 h [1, 5]: 2140 µg/mL (≈ 6.38 mM)
- solubility at 48 h ([1]; 10% DMSO in HDAC buffer, aqueous with cosolvent or surfactant or cyclodextrin, 10% DMSO/HDAC): 2200 µg/mL (≈ 6.55 mM)
- solubility at 48 h ([1]; aqueous buffer, 100% HDAC buffer): 2300 µg/mL (≈ 6.87 mM)
- thermodynamic solubility (in words) [1]: thermodynamically soluble
- SIRT3 activation in label-free assay (Human Sirt3 protein [3]; 3 μM NAD+ and 250 μM peptide substrate, 0-400 μM DHP-2, threshold vapp/v=1.10): does not activate SIRT3
Compound: O=C(O)C1=CN(Cc2ccccc2)C=C(C(=O)O)C1c1ccccc1 [DHP-2, N-Benzyl-3,5-dicarboxy-4-phenyl-1,4-dihydropyridine]
- rate enhancement versus predicted for Km,NAD+ reduction (x = 0.7, 0.8, 0.9) (Human Sirt3 protein [3]; any concentration tested, label-free assay (FIG. 8 vs FIG. 10)): does not induce a rate enhancement exceeding those predicted

The next lines start with the compound.

Compound: C=CCc1ccc(O)c(-c2ccc(O)c(CC=C)c2)c1 [Honokiol, 5,3′-Diallyl-2,4′-dihydroxybiphenyl, reference compound]
- solubility at 48 h [1, 4]: 41 µg/mL (≈ 0.154 mM)
- solubility at 48 h [1, 5]: 120 µg/mL (≈ 0.451 mM)
- Kd (Human Sirt3 protein [2]; read-out: Kd, binding to SIRT3 apoenzyme): 1010 ± 129 nM
- Kd (Human Sirt3 protein [2]; read-out: Kd, binding to the enzyme:NAD+ complex): 1670 ± 125 nM

Compound: NC(=O)c1cccnc1 [NAM, nicotinamide]
- ΔGbind,NAM (Sir2Af2): -4.1 kcal/mol

Compound: NC(=O)c1ccncc1 [isonicotinamide, reference compound]
- outcome of hit identification (recombinant human SIRT3; same sirtuin enzyme and peptide substrate, competitive inhibitor of base exchange): screened out
